These results are taken from US12486253B2, “Therapeutics for the degradation of mutant BRAF” (C4 THERAPEUTICS, INC., priority 2021, dated 2025).

The structures appear in SMILES notation. Read-outs that look alike come from different tables or passages of the source.

The target in assay [1] is WT BRAF (Homo sapiens, UniProt P15056). Put plainly: Western blot of WT BRAF and pERK levels in HCT-116 cells. The format is cell-based. The following applies: HCT-116 cells with endogenous WT BRAF.
The test system of assay [2] is A375 cells. Briefly: Cellular confluence of A375 cells by live cell imaging. The class given is cell-based. The following applies: end of the 7-day experiment.
The test system of assay [3] is phospho-ERK (T202/Y204). Briefly: HTRF phospho-ERK (T202/Y204) inhibition assay in A375 cells. The format is cell-based. The following applies: Homo sapiens, A-375, 24 hrs, mean of at least n = 3, read-out: pERK IC50. The procedure: A375 (harboring BRAF homozygous V600E mutation) were purchased from ATCC. DMEM Medium without phenol red and supplemented with L-glutamine was purchased from Corning (Corning, NY, USA). Advanced phospho-ERK (Thr202/Tyr204) HTRF assay kits were purchased from Cisbio (Bedford, MA, USA). Cell culture flasks and 384-well microplates were acquired from VWR (Radnor, PA, USA) or Corning (Corning, NY, USA).
Degradation of activated phospho-ERK (T202/Y204) protein was determined based on quantification of FRET signal using the Advanced phospho-ERK (T202/Y204) HTRF assay kit. Test compounds were added to the 384-well plate from a top concentration of 10 μM with 11 points, half log titration in duplicates. A375 cells were added into 384-well plates at a cell density of 8000 cells per well, respectively. The plates were kept at 37° C. with 5% CO2 for 24 hours. Cells treated in the absence of the test compound were the negative control. Positive control was set by wells containing all reagents but no cells. FRET signal was acquired on EnVision™ Multilabel Reader (PerkinElmer, Santa Clara, CA, USA).

Assay [4] addresses ARAF (Homo sapiens, UniProt P10398). Put plainly: Global proteomics profiling, JURKAT cells. The class given is cell-based. The arrangement: endogenous in cells; host or cells: JURKAT, ATCC TIB-152 (A11.2). The following applies: 300 nM, 24 hours. Here is the method: (§1) Each cell line was treated in duplicate with either DMSO or Compound 157 (final concentration 300 nM) for 24 hours in an incubator at 37° C. with 5% CO2. After the 24-hour incubation, cells were harvested, washed twice with PBS, and snap frozen in liquid nitrogen. Samples were re-suspended in lysis buffer [8 M urea, 50 mM HEPES (pH 8.5), 50 mM NaCl, 1× protease inhibitor cocktail] and lysed by sonication at 4° C. with 85% amplitude in a pulse setting with 30 seconds on and 30 seconds off for a total sonication time of 5 minutes. Lysates were centrifuged at maximum speed for 10 minutes at 4° C. and the supernatant collected, reduced for 1 hour at room temperature with 5 mM TCEP, and the cysteine residues were then alkylated with 15 mM iodoacetamide (room temperature, in dark, 30 minutes). Protein content was extracted by methanol-chloroform precipitation and subsequent ice-cold acetone washes. Protein pellets were resuspended in 8 M urea, 50 mM HEPES (pH 8.5) buffer and protein concentrations were measured by BCA assay. […]
(§2) For peptide tandem mass tag (TMT) labeling, 100 μg of peptides per sample was prepared at […] concentration in 200 mM HEPES (pH 8.5), 30% acetonitrile (ACN) and each the specific TMT reagent. […] TMT reporter ion intensities were quantified by extracting the signal-to-noise ratio for each. […]

For assay [5], the system named is LOXL4. Put plainly: Global proteomics profiling, A375 cells. The class given is cell-based, human. The following applies: 300 nM, 24 hours. Here is the method: as §1, §2
Assay [6] addresses BRAF V600E (Homo sapiens, UniProt P15056, V600E). Put plainly: HiBiT cellular BRAF^V600E degradation assay. The class given is cell-based. (In general: The HiBiT peptide binds its large partner to form an active luciferase.)

Usually IC50 stands for the point on the concentration scale where inhibition reaches its midpoint. As a reminder, the Emax is the size of the effect at its maximum, as opposed to the concentration needed.

Chain of BRAF V600E (P15056 whole entry V600E): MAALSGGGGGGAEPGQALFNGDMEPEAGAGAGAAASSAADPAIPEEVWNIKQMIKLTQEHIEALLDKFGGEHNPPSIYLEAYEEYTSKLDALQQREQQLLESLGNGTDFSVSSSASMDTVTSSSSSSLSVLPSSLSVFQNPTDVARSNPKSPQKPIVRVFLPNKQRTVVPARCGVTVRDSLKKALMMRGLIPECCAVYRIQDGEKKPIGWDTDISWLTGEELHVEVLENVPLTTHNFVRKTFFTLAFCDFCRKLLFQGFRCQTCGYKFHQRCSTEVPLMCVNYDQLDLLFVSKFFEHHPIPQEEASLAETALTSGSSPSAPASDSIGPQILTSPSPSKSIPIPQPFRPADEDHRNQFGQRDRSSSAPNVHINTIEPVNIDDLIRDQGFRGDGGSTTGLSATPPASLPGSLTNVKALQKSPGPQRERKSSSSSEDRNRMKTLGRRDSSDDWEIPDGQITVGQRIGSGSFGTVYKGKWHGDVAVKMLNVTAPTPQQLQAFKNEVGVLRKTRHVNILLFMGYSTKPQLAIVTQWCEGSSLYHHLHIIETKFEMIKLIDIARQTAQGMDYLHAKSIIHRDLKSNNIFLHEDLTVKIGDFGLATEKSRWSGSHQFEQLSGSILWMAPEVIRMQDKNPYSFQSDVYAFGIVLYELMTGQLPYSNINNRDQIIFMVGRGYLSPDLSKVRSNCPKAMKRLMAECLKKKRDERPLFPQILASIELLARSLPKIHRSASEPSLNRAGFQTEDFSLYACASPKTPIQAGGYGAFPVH
Chain of WT BRAF (P15056 whole entry): as the sequence (P15056 whole entry V600E) above, with E600V counted along it
Chain of ARAF (P10398 whole entry): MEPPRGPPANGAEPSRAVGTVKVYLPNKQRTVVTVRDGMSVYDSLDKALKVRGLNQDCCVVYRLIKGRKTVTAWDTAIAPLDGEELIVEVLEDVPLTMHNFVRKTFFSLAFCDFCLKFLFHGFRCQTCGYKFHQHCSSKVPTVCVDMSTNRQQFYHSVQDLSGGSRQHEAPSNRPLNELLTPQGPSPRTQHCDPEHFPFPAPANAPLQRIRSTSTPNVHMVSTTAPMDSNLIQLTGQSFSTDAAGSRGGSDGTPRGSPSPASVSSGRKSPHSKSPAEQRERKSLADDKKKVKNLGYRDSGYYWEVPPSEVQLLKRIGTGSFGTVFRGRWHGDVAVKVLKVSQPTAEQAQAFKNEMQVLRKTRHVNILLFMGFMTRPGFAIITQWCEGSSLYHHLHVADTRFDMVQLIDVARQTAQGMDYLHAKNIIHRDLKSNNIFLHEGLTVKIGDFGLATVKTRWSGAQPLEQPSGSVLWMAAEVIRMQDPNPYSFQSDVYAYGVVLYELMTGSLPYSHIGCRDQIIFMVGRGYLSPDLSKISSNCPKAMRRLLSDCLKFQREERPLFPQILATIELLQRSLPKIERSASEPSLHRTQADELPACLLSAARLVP

As to `CCN(C)S(=O)(=O)Nc1ccc(F)c(Oc2ccc3ncn([C@H]4COC5(CCN(C(=O)CC6(O)CCN(c7cc8c(cc7F)c(N7CCC(=O)NC7=O)nn8C)CC6)CC5)C4)c(=O)c3c2)c1C#N` [Compound 157, (3R)-3-[6-[2-cyano-3-[[ethyl(methyl)sulfamoyl]amino]-6-fluorophenoxy]-4-oxoquinazolin-3-yl]-8-[2-[1-[3-(2,4-dioxo-1,3-diazinan-1-yl)-5-fluoro-1-methylindazol-6-yl]-4-hydroxypiperidin-4-yl]acetyl]-1-oxa-8-azaspiro[4.5]decane], the “WT BRAF levels and phosphorylation of ERK” value in assay [1] is “minimal impact”. The molecule further displayed a cellular confluence in assay [2] of around 20%. Further, the IC50 in assay [3] was 3.2 nM. Further, in assay [4], the “ARAF protein level change” value is listed as “unchanged”. In addition, the “LOXL4 protein level change” value in assay [5] is given as “decreased”. Besides, in assay [6], the BRAF protein degraded is given as 74% and the “HiBit 24 h Emax” value is listed as 27.48%. Further, the Emax in assay [6] (A-375, read-out: Emax BRAF^V600E degradation) is 26%. The Emax in assay [6] (read-out: HiBit 24 h Emax) is around 25%.
